What was measured:
[1] = molecular target: T1, human factor VIIa (Homo sapiens, UniProt P08709); test: Inhibition of Factor VIIa hydrolysis of chromogenic substrate S2288 (Ki); format: biochemical; details: S2288, pH 7.6
T1 construct: 50 nM human factor VIIa (BiosPacific, Emeryville, Calif.); purchased BiosPacific, Emeryville, Calif
T1 sequence (P08709 213-466 limits assumed): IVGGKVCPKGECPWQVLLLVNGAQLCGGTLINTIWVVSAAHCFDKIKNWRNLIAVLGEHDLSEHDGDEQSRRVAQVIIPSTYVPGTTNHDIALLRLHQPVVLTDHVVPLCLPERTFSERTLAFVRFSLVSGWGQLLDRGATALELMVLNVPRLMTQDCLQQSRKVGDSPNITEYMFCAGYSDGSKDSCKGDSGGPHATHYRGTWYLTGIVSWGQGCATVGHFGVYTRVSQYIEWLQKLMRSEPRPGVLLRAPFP
T1 sequence (P08709 61-212 limits assumed): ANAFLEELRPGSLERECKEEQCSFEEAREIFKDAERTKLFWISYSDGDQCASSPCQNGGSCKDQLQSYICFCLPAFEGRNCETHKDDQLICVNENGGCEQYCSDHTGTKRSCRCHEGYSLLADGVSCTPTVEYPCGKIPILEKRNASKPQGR
Procedure: (§1) The effectiveness of compounds of the present invention as inhibitors of blood coagulation proteases was determined using purified human proteases and synthetic substrates following procedures similar to those described in Kettner et al. (1990).
(§2) For these assays, the rate of enzymatic (thrombin, Factor Xa, and Factor VIIa) hydrolysis of chromogenic substrates (S2238 (H-D-Phe-Pip-Arg-pNA), S2222, and S2288, respectively; Kabi Pharmacia, Franklin, Ohio) was measured both in the absence and presence of compounds of the present invention. […] A decrease in the rate of absorbance change at 405 nm in the presence of inhibitor is indicative of enzyme inhibition. The results of this assay are expressed as inhibitory constant, Ki.
(§3) Thrombin and Xa determinations were made in 0.10M sodium phosphate buffer, pH 7.5, containing 0.20M NaCl, and 0.5% PEG 8000. VIIa determinations were made in 0.05M tris buffer, pH 7.6, containing 0.10M NaCl, 4 mM CaCl2, and 0.1% bovine serum albumin.
(§4) Reactions were allowed to go for 30 minutes and the velocities (rate of absorbance change vs time) were measured in the time frame of 25-30 minutes. The following relationship was used to calculate Ki values. [formula] where: vo is the velocity of the control in the absence of inhibitor;
(§5) vs is the velocity in the presence of inhibitor;
(§6) I is the concentration of inhibitor;
(§7) Ki is the dissociation constant of the enzyme: inhibitor complex;
(§8) S is the concentration of substrate;
(§9) Km is the Michaelis constant.

[2] = molecular target: T2, human factor Xa (Homo sapiens, UniProt P00742); test: Inhibition of Factor Xa hydrolysis of chromogenic substrate S2222 (Ki); format: biochemical; details: S2222, pH 7.5
T2 construct: 0.2-0.5 nM human thrombin or human factor Xa; purchased Enzyme Research Laboratories, South Bend, Ind
Procedure: as §1, §2, §3, §4, §5, §6, §7, §8, §9

[3] = tested on: thrombin clotting times; test: Thrombin clotting time, concentration for 2-fold increase; format: biochemical; details: 2-fold increase of thrombin clotting time
[4] = molecular target: T3, human thrombin (Homo sapiens, UniProt P00734); test: Inhibition of thrombin hydrolysis of chromogenic substrate S2238 (Ki); format: biochemical; details: S2238, pH 7.5
T3 construct: 0.2-0.5 nM human thrombin or human factor Xa; purchased Enzyme Research Laboratories, South Bend, Ind
Procedure, shortened: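 Purified human enzymes hydrolysing pNA substrates (thrombin S2238, factor Xa S2222, factor VIIa S2288), followed by absorbance at 405 nm over 30 min with velocities taken at 25-30 min. Thrombin and Xa were run in 0.10 M phosphate pH 7.5, 0.20 M NaCl, 0.5% PEG 8000. VIIa was run in 0.05 M Tris pH 7.6, 0.10 M NaCl, 4 mM CaCl2, 0.1% BSA, with Ki calculated from inhibited versus control velocities using substrate concentration and Km.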

[5] = molecular target: chymotrypsin (Bos taurus, UniProt P00766); details: Matteson et al. J. Am. Chem. Soc. 103: 5241 (1981); cited from earlier work
[6] = tested on: activated partial thromboplastin time; test: Anticoagulant effect in vivo: prolongation of activated partial thromboplastin time of blood samples after dosing; design: species or system conscious dogs or anesthetized rats; details: 0.5 to 10 mg/kg, dogs or rats
Procedure: Arterial or venous blood was withdrawn by syringe and mixed with 1/10 volume 3.2% sodium citrate. Plasma was obtained after centrifugation and a standard clinical activated partial thromboplastin time (APTT reagent, Sigma Chemical Co., St. Louis, Mo.) determined at 37° C. in a fibrometer.

[7] = tested on: thrombin clotting times; test: Anticoagulant effect in vivo: identical model, activity measured by increases in thrombin clotting times; design: species or system conscious dogs or anesthetized rats; details: oral administration

T2 sequence (P00742 235-488 limits assumed): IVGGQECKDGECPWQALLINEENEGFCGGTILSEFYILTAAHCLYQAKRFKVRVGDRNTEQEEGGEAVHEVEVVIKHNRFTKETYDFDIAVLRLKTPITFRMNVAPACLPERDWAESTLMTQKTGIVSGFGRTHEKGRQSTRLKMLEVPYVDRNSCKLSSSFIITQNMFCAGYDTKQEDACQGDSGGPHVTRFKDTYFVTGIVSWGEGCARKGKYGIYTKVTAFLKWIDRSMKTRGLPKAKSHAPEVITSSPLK
T2 sequence (P00742 41-179 limits assumed): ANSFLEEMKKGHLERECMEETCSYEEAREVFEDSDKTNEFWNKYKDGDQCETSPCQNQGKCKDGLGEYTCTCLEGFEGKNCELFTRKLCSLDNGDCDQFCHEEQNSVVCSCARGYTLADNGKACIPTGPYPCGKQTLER

Boc--(D)Phe--Pro--boroOrn(CH=NH)]--OH.0.6 HCl.0.4 BSA [Example 7]
Ki [1]: < 500 nM
Ki [2]: < 500 nM
concentration that increased thrombin clotting times 2-fold [3]: < 0.075 µM
Ki [4]: < 500 nM

CC(=O)NC(Cc1ccccc1)C(=O)N1CCCC1C(=O)NC(Cc1cccc(C#N)c1)B1OC2CC3CC(C3(C)C)C2(C)O1 (centres unmarked) [Example 11, Ac--(D)Phe--Pro--boroPhe--(m-CN)--C10 H16]
Ki [1]: < 500 nM
Ki [2]: < 50000 nM
concentration that increased thrombin clotting times 2-fold [3]: 0.60 µM
Ki [4]: < 500 nM

CC(=O)N[C@@H](Cc1ccccc1)B(O)O [Ac-boroPhe--OH, R-1-acetamido-2-phenylethane boronic acid]
Ki [5]: 4000 nM

CCCCS(=O)(=O)NC(Cc1ccccc1)C(=O)N1CCCC1C(=O)NC(CCCNC=N)B(O)O.Cl (centres unmarked) [Example 66, CH3 (CH2)3 SO2 --(D)Phe--Pro--boroOrn(CH=NH)--OH.HCl]
anticoagulant response (at least doubling of activated partial thromboplastin time vs. pre-dose) ([6]; oral dosing): effective
Ki [4]: < 500 nM

CS(=O)(=O)N[C@H](Cc1ccccc1)C(=O)N1CCC[C@H]1C(=O)N[C@@H](CCCNC=N)B(O)O.Cl [Example 57, Ms--(D)Phe--Pro--boroOrn(CH=NH)--OH.HCl]
anticoagulant response (at least doubling of activated partial thromboplastin time vs. pre-dose) ([6]; i.v. dosing): effective
anticoagulant response (at least doubling of activated partial thromboplastin time vs. pre-dose) ([6]; oral dosing): effective
Ki [4]: < 500 nM

Ac--(D)Phe--Pro--boroArg(CH3)--OH.HCl [Example 54]
elevation in anticoagulant activity measured by increases in thrombin clotting times [7]: ≥ 2 fold
Ki [4]: < 500 nM

Ms--(D)Phe--Pro--boroArg(CH3)--OH.HCl [Example 56]
anticoagulant response (at least doubling of activated partial thromboplastin time vs. pre-dose) ([6]; oral dosing): effective
Ki [4]: < 500 nM

H--(D)Phe--Pro--boroOrn(CH=NH)]--OH.0.65 HCl.0.35 BSA [Example 9]
concentration that increased thrombin clotting times 2-fold [3]: 0.10 µM
Ki [4]: < 500 nM

CS(=O)(=O)N[C@H](Cc1ccc(F)cc1)C(=O)N1CCC[C@H]1C(=O)N[C@@H](CCCNC=N)B(O)O.Cl [Example 60, Ms--(D)Phe(4-fluoro)-Pro--boroOrn(CH=NH)--OH.HCl]
anticoagulant response (at least doubling of activated partial thromboplastin time vs. pre-dose) ([6]; oral dosing): effective
Ki [4]: < 500 nM

Ac--(D)Phe--Pro--boroOrn(CH=NH)]--OH.HCl [Example 4]
Ki [1]: < 500 nM
Ki [2]: < 500 nM
anticoagulant response (at least doubling of activated partial thromboplastin time vs. pre-dose) ([6]; i.v. dosing): effective
anticoagulant response (at least doubling of activated partial thromboplastin time vs. pre-dose) ([6]; oral dosing): effective
Ki [4]: < 500 nM

CC(=O)NC(Cc1ccccc1)C(=O)N1CCCC1C(=O)NC(Cc1cccc(C(=N)N)c1)B1OC2CC3CC(C3(C)C)C2(C)O1.O=S(=O)(O)c1ccccc1 (centres unmarked) [Example 12, Ac--(D)Phe--Pro--boroPhe--(m-C(NH)NH2)--C10 H16.BSA]
concentration that increased thrombin clotting times 2-fold [3]: 0.85 µM
Ki [4]: < 500 nM

Ms--(D)Thiazolylalanine-Pro--boroPhe(m-CN)--C10 H16 [Example 31]
elevation in anticoagulant activity measured by increases in thrombin clotting times [7]: ≥ 2 fold
Ki [2]: < 500 nM
Ki [4]: < 500 nM

Cl.N=CNCCCC(NC(=O)C1CCCN1C(=O)C(Cc1ccccc1)NC(=O)OCc1ccccc1)B(O)O (centres unmarked) [Example 77, Z--(D)Phe--Pro--boroOrn(CH=NH)--OH.HCl]
anticoagulant response (at least doubling of activated partial thromboplastin time vs. pre-dose) ([6]; i.v. dosing): effective

CC(=O)NC(Cc1ccccc1)C(=O)N1CCCC1C(=O)NC(CCCNC=N)B1OC2CC3CC(C3(C)C)C2(C)O1.Cl (centres unmarked) [Example 3, Ac--(D)Phe--Pro--boroOrn(CH=NH)]--C10 H16.HCl]
concentration that increased thrombin clotting times 2-fold [3]: 0.25 µM
Ki [4]: < 500 nM
